The target in the experiment is T1, mouse VISTA (mVISTA) (Mus musculus, UniProt Q9D659).
T1 construct: expressed in transfected cells; host or cells: Human embryonic kidney 293T cells
T1 sequence (Q9D659 33-308): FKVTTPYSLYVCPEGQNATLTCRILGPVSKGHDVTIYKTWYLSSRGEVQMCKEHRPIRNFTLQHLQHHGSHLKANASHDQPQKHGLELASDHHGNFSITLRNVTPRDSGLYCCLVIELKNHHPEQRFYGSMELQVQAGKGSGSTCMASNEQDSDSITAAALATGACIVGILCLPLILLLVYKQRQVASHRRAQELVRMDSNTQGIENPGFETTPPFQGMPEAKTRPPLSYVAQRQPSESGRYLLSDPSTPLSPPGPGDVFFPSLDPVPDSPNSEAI
Description: Cell-Based Binding High-Content Assay For mVISTA (HC CBA mVISTA). The note with it: cell-based binding high-content assay; read-out: HC CBA miPrISTA IC50. The method, then:
Cell-Based Binding High-Content Assay For mVISTA
Human embryonic kidney 293T cells (293T) expressing mouse VISTA (mVISTA) were used for the assessment of compounds competing with the binding of a biotinylated peptide. Cryopreserved cells were thawed in a 37° C. water bath and incubated overnight at a 37° C./5% CO2 incubator in assay culture media DMEM (Life Technologies Inc. Cat. No. 11995-126) supplemented with 10% (v/v) FBS (Sigma, Cat. No. F4135), 1× Penicillin/Streptomycin (Life Technologies Inc. Cat. No. 15140-122). Cells were harvested, washed and resuspended in DMEM media […]. To test compounds under “no-wash” condition, cells were seeded into PDL-coated 384 well plates (Corning, Cat. No. 356663) at 4,000 cells/20 μL. After incubating the cell plates for two hours at a 37° C./5% CO2 incubator, 125 nL of test compound was added using an ECHO. Alternatively, to test compounds under “wash” condition, test compounds were added first, followed by addition of 20 μL cells at a density of 4000 cells/well. After incubation for an hour, the media was removed, followed by addition of 20 μL of fresh media ( ), and plates were then incubated for another hour. To plates either under “no wash” or “wash” condition, the biotinylated peptide was added to a final concentration of 2 nM, and plates were incubated at room temperature for 30 minutes. Fifteen (15) μL of Alexa 647 conjugated Streptavidin (Life Tech, Cat. No. S21374), suspended at 2 μg/ml in media, was added to the assay plate and incubate for 30 minutes. Cells were fixed by adding 15 μL of formaldehyde at a final concentration of 8% (w/v) (Sigma Cat. No. 252549), 20 μg/mL Hoechst (Thermo Scientific Cat. No. 62249) in PBS for 10 minutes at room temperature. The plates were washed 3 times in dPBS, sealed, and read on a CellInsight NXT High Content Screening Platform IC903000 (Thermo Scientific). The 50% effective concentration (IC50) was calculated using the four-parameter logistic formula y=A+((B−A)/(1+((C/x)^D))), where A and B denote minimal and maximal % inhibition, respectively, C is the EC50, D is hill slope and x represent compound concentration.

One may read the IC50 as the concentration that inhibits the measured activity by half. As for `CCCCCCN1CC(=O)N[C@@H](Cc2ccc(O)cc2)C(=O)N[C@@H](CCCC)C(=O)N[C@@H](CC(N)=O)C(=O)N[C@@H](CCCNC(=N)N)C(=O)N[C@@H](CC(C)C)C(=O)N[C@@H](CCCCC)C(=O)N2CCC[C@H]2C(=O)N[C@@H](C(C)C)C(=O)N[C@@H](CC(=O)O)C(=O)N[C@H](C(=O)NCCOCCOCC(=O)N[C@@H](CC(=O)O)C(=O)NCCOCCOCC(=O)NCCCCCCCCCCC(=O)O)CSCC(=O)N[C@@H](Cc2cccc(C)c2)C(=O)N[C@@H](Cc2c[nH]c3ccccc23)C(=O)N[C@@H](CC(=O)O)C1=O` (stereo in doubt) [compound 2286], the IC50 was 25.3 nM. Consider `CCCCCCN1CC(=O)N[C@@H](Cc2ccc(O)cc2)C(=O)N[C@@H](C(C)C)C(=O)NCC(=O)N[C@@H](CCCNC(=N)N)C(=O)N[C@@H](CC(C)C)C(=O)N[C@@H](CCCCC)C(=O)N2CCC[C@H]2C(=O)N[C@@H](C(C)C)C(=O)N[C@@H](CC(=O)O)C(=O)N[C@H](C(=O)NCCOCCOCC(=O)N[C@@H](CC(=O)O)C(=O)NCCOCCOCC(=O)NCCCCCCCCCCC(=O)O)CSCC(=O)N[C@@H](Cc2ccc3ccccc3c2)C(=O)N[C@@H](Cc2ccc(O)cc2)C(=O)N[C@@H](CC(=O)O)C1=O` (stereo in doubt) [compound 2287], for which the IC50 amounted to 21.6 nM.

Take `CCCCCCN1CC(=O)N[C@@H](Cc2ccc(O)cc2)C(=O)N[C@@H](CCCC)C(=O)N[C@@H](CC(N)=O)C(=O)N[C@@H](CCCNC(=N)N)C(=O)N[C@@H](CC(C)C)C(=O)N[C@@H](CCCCC)C(=O)N2CCC[C@H]2C(=O)N[C@@H](C(C)C)C(=O)N[C@@H](CO)C(=O)N[C@H](C(=O)NCCOCCOCC(=O)N[C@@H](CC(=O)O)C(=O)NCCOCCOCC(=O)NCCCCCCCCCCC(=O)O)CSCC(=O)N[C@@H](Cc2ccc3ccccc3c2)C(=O)N[C@@H](Cc2ccc(O)cc2)C(=O)N[C@@H](CC(=O)O)C1=O` (stereo in doubt) [compound 2288]: the IC50 is 8.6 nM.

Turning to `CCCCCCN1CC(=O)N[C@@H](Cc2ccc(O)cc2)C(=O)N[C@@H](CC(C)C)C(=O)N[C@@H](CC(N)=O)C(=O)N[C@@H](CCCNC(=N)N)C(=O)N[C@@H](CC(C)C)C(=O)N[C@@H](CCCCC)C(=O)N2CCC[C@H]2C(=O)N[C@@H](C(C)C)C(=O)N[C@@H](C(C)C)C(=O)N[C@H](C(=O)NCCOCCOCC(=O)N[C@@H](CC(=O)O)C(=O)NCCOCCOCC(=O)NCCCCCCCCCCC(=O)O)CSCC(=O)N[C@@H](Cc2ccccc2)C(=O)N[C@@H](Cc2cccc(C)c2)C(=O)N[C@@H](CC(=O)O)C1=O` (stereo in doubt) [compound 2289], the IC50 was 15.7 nM.

For `CCCCCCN1CC(=O)N[C@@H](Cc2ccc(O)cc2)C(=O)N[C@@H](CCCC)C(=O)N[C@@H](CC(N)=O)C(=O)N[C@@H](CCCNC(=N)N)C(=O)N(C)[C@@H](CCCC)C(=O)N[C@@H](CCCCC)C(=O)N2CCC[C@H]2C(=O)N[C@@H](C(C)C)C(=O)N[C@@H](CC(=O)O)C(=O)N[C@H](C(=O)NCCOCCOCC(=O)N[C@@H](CC(=O)O)C(=O)NCCOCCOCC(=O)NCCCCCCCCCCC(=O)O)CSCC(=O)N[C@@H](Cc2ccc3ccccc3c2)C(=O)N[C@@H](Cc2c[nH]c3ccccc23)C(=O)N[C@@H](CC(=O)O)C1=O` (stereo in doubt) [compound 2290], the IC50 was 39.1 nM.

Take `CCCCCCN1CC(=O)N[C@@H](Cc2ccc(O)cc2)C(=O)N[C@@H](CC(C)C)C(=O)N[C@@H](CC(N)=O)C(=O)N[C@@H](CCCNC(=N)N)C(=O)N[C@@H](CC(C)C)C(=O)N[C@@H](CCCCC)C(=O)N2CCC[C@H]2C(=O)N[C@@H](C(C)C)C(=O)N[C@@H](C(C)C)C(=O)N[C@H](C(=O)NCCOCCOCC(=O)N[C@@H](CC(=O)O)C(=O)NCCOCCOCC(=O)NCCCCCCCCCCC(=O)O)CSCC(=O)N[C@@H](Cc2ccccc2)C(=O)N[C@@H](Cc2ccc(O)cc2)C(=O)N[C@@H](CC(=O)O)C1=O` (stereo in doubt) [compound 2291]: the IC50 is 17.4 nM. For the molecule `CCCCCCN1CC(=O)N[C@@H](Cc2ccc(O)cc2)C(=O)N[C@@H](CCCC)C(=O)N[C@@H](CC(=O)O)C(=O)N[C@@H](CCCNC(=N)N)C(=O)N[C@@H](CC(C)C)C(=O)N[C@@H](CCCCC)C(=O)N2CCC[C@H]2C(=O)N[C@@H](C(C)C)C(=O)N[C@@H](CC(N)=O)C(=O)N[C@H](C(=O)NCCOCCOCC(=O)N[C@@H](CC(=O)O)C(=O)NCCOCCOCC(=O)NCCCCCCCCCCC(=O)O)CSCC(=O)N[C@@H](Cc2ccccc2)C(=O)N[C@@H](Cc2ccc(O)cc2)C(=O)N[C@@H](CC(=O)O)C1=O` (stereo in doubt) [compound 2295], the IC50 was 33.1 nM. As to `CCCCCCN1CC(=O)N[C@@H](Cc2ccc(O)cc2)C(=O)N[C@@H](CCCC)C(=O)N[C@@H](CC(N)=O)C(=O)N[C@@H](CCCNC(N)=O)C(=O)N[C@@H](CC(C)C)C(=O)N[C@@H](CCCCC)C(=O)N2CCC[C@H]2C(=O)N[C@@H](C(C)C)C(=O)N[C@@H](CO)C(=O)N[C@H](C(=O)NCCOCCOCC(=O)N[C@@H](CC(=O)O)C(=O)NCCOCCOCC(=O)NCCCCCCCCCCC(=O)O)CSCC(=O)N[C@@H](Cc2ccc3ccccc3c2)C(=O)N[C@@H](Cc2ccc(O)cc2)C(=O)N[C@@H](CC(=O)O)C1=O` (stereo in doubt) [compound 2305], the IC50 is 23 nM. As to `CCCCCCN1CC(=O)N[C@@H](Cc2ccc(O)cc2)C(=O)N[C@@H](CCCC)C(=O)NCC(=O)N[C@@H](CCCNC(N)=O)C(=O)N[C@@H](CC(C)C)C(=O)N[C@@H](CCCCC)C(=O)N2CCC[C@H]2C(=O)N[C@@H](C(C)C)C(=O)N[C@@H](CC(=O)O)C(=O)N[C@H](C(=O)NCCOCCOCC(=O)N[C@@H](CC(=O)O)C(=O)NCCOCCOCC(=O)NCCCCCCCCCCC(=O)O)CSCC(=O)N[C@@H](Cc2cccc(C)c2)C(=O)N[C@@H](Cc2ccc(O)cc2)C(=O)N[C@@H](CC(=O)O)C1=O` (stereo in doubt) [compound 2309], the IC50 was 17.9 nM. The value for `CCCCCCN1CC(=O)N[C@@H](Cc2ccc(O)cc2)C(=O)N[C@@H](CCCC)C(=O)N[C@@H](CC(N)=O)C(=O)N[C@@H](CCCNC(N)=O)C(=O)N2Cc3ccccc3C[C@H]2C(=O)N[C@@H](CCCCC)C(=O)N2CCC[C@H]2C(=O)N[C@@H](C(C)C)C(=O)N[C@@H](CO)C(=O)N[C@H](C(=O)NCCOCCOCC(=O)N[C@@H](CC(=O)O)C(=O)NCCOCCOCC(=O)NCCCCCCCCCCC(=O)O)CSCC(=O)N[C@@H](Cc2ccccc2)C(=O)N[C@@H](Cc2c[nH]c3ccccc23)C(=O)N[C@@H](CC(=O)O)C1=O` (stereo in doubt) [compound 2311] was 28.4 nM. With `CCCCCCN1CC(=O)N[C@@H](Cc2ccc(O)cc2)C(=O)N[C@@H](CCCC)C(=O)N[C@@H](CC(N)=O)C(=O)N[C@@H](CCCNC(=N)N)C(=O)N(C)[C@@H](CC(C)C)C(=O)N[C@@H](CCCCC)C(=O)N2CCC[C@H]2C(=O)N[C@@H](C(C)C)C(=O)N[C@@H](CO)C(=O)N[C@H](C(=O)NCCOCCOCC(=O)N[C@@H](CC(=O)O)C(=O)NCCOCCOCC(=O)NCCCCCCCCCCC(=O)O)CSCC(=O)N[C@@H](Cc2ccccc2)C(=O)N[C@@H](Cc2c[nH]c3ccccc23)C(=O)N[C@@H](CC(=O)O)C1=O` (stereo in doubt) [compound 2314], the IC50 stood at 34.6 nM.

Take `CCCCCCN1CC(=O)N[C@@H](Cc2ccc(O)cc2)C(=O)N[C@@H](CCCC)C(=O)N[C@@H](CC(N)=O)C(=O)N[C@@H](CCCNC(N)=O)C(=O)N(C)[C@@H](CCCC)C(=O)N[C@@H](CCCCC)C(=O)N2CCC[C@H]2C(=O)N[C@@H](C(C)C)C(=O)N[C@@H](CO)C(=O)N[C@H](C(=O)NCCOCCOCC(=O)N[C@@H](CC(=O)O)C(=O)NCCOCCOCC(=O)NCCCCCCCCCCC(=O)O)CSCC(=O)N[C@@H](Cc2ccccc2)C(=O)N[C@@H](Cc2c[nH]c3ccccc23)C(=O)N[C@@H](CC(=O)O)C1=O` (stereo in doubt) [compound 2317]: the IC50 stood at 18.3 nM.

(Values after patent publication US20240218022A1, “ANTI-VISTA MACROCYCLIC PEPTIDES AND COMPOSITIONS” (BRISTOL-MYERS SQUIBB COMPANY, priority 2022, published 2024).)
